{"source": "patent US20090186915A1", "about": "“Compositions and methods for treatment of glioblastoma, gliosarcoma, NSCLC, and head and neck cancer” (Unibioscreen S. A., priority 2006, published 2009)", "key": {"U-373 MG": {"tested_on": "U-373 MG", "test": "Cell migration (phase-contrast microscopy)", "format": "cell-based", "settings": "Homo sapiens, U373 MG, 22 h, read-out: Maximum effects (cell migration); for Emax at 0.1 µM: at 10^−7 M", "description": "Cells of different cancer lines, i.e. U-373 MG (Glioma cancer) and A549 (Lung cancer) were seeded on culture flask 48 hours before the migration experiment. On the test day, cells were treated with or without the compound of example 2 in closed Falcon dishes containing a buffered medium at a controlled temperature (37.0±0.1° C.) for 12 or 22 hours, as noted in the right column of table 3. The compound of example 2 was used at three non-cytotoxic concentrations (10^−6 M, 10^−7M, 10^−8 M). Migration of the cells was observed by means of a CCD-camera mounted on a phase-contrast microscope. Statistical analysis of the migration, with the non-parametric Mann-Whitney test, was established for 25% and 50% of the most motile cells and for the entire cell population."}, "E2F1": {"tested_on": "E2F1", "test": "E2F1 expression (Western blot, RT-PCR), PC-3", "format": "cell-based, human", "settings": "10 μM", "description": "Reverse transcription reactions were carried out in a thermal cycler (Thermocycler; Westburg, Leusden, The Netherlands). The purification of the cDNAs produced was undertaken using the High Pure PCR Product Purification Kit (Roche Diagnostics, Mannheim, Germany) in accordance with the manufacturer's instructions. Quantitative PCR reactions were performed with 50 ng of purified cDNA in a LightCycler thermocycler instrument (Roche Diagnostics) using LCFastart DNA Master SYBR Green 1 (Roche Diagnostics). After amplification, data analysis was carried out by means of the “Fit points” algorithm of the LightCycler quantification software. A standard curve enabled cDNA quantification of samples to be effected. […]\nCell extracts were prepared by the lysis of subconfluent PC-3 cells directly in boiling lysis buffer (10 mM Tris, pH 7.4, 1 mM Na3O4V, 1% SDS, pH 7.4). Approximately 40 μg of extracted proteins (evaluated by the bicinchoninic acid protein assay; Pierce, Perbio Science, Erembodegem, Belgium) was then loaded onto a denaturing polyacrylamide gel. The proteins submitted to Western blot analyses were detected using primary antibodies provided by: 1) CST Technologies, Bioké, Leiden, The Netherlands: Rb (1:2000) and p-Rb (1:1000); 2) BD Transduction Laboratories, Erembodegem, Belgium: E2F1 (1:400); and 3) AbCam, Cambridge, UK: tubulin (1:3000, used as a loading control). […]"}, "DU-145 [1]": {"tested_on": "DU-145", "test": "Apoptosis by Annexin V flow cytometry, DU-145", "format": "cell-based, human", "description": "We used flow cytometry (according to the protocol found in Mijatovic et al. Neoplasia 2006) to determine the percentages of PC-3 and DU-145 positive cells for both Annexin V and propidium iodide and we observed that a maximum of 10% only of PC-3 or DU-145 cells underwent apoptotic processes following a treatment with 10 μM of the compound produced according to example 2 or example 7.\nThe determination of the percentage of cells undergoing apoptosis was performed using an Annexin V-FITC Apoptosis Detection Kit (Sigma) following the manufacturer's instructions. Each sample was evaluated in triplicate."}, "PC-3": {"tested_on": "PC-3", "test": "Senescence-associated β-galactosidase staining, PC-3", "format": "cell-based, human", "settings": "10 μM, 72 hours", "description": "After the indicated treatments, cells were washed in PBS, fixed for 3 to 5 minutes (at room temperature) in 2% formaldehyde/0.2% glutaraldehyde, washed and incubated at 37° C. (in the absence of CO2) with fresh senescence-associated β-Gal (SA-β-Gal) staining solution: 1 mg/ml of 5-bromo-4-chloro-3-indolyl […] (X-Gal; Sigma). Staining was evident within 2 to 4 hours and maximal after 12 to 16 hours. To detect lysosomal β-Gal, the citric acid/sodium phosphate used was pH 4.0. As described in the study of Dimri et al. [Proc Natl Acad Sci USA. 1995; 92:9363-9367.], after fixing and staining with X-Gal, the number of cells positive for the SA-β-Gal activity (intense blue staining) was then counted independently by two different individuals (on 400 cells/plate). Representative photographs (original magnifications, ×20) of stained cells from different experimental treatments were taken. As a positive control for SA-β-Gal expression, Adriamycin-treated cells were used.\nHuman PC-3 and DU-145 prostate cancer cells cultured in 0 or 10 μM UNBS5162 or 20 nM Adriamycin for 72 hours were evaluated by SA-β-Gal staining. The data clearly indicate that 10 μM [but not 1 μM or 5×1 μM] […] TMZ, as an inducer of autophagy but not of senescence, was used as a negative control."}, "DU-145 [2]": {"tested_on": "DU-145", "test": "Autophagy: acidic vesicular organelles, acridine orange flow cytometry, DU-145", "format": "cell-based, human", "settings": "red fluorescence, up to 10 μM", "description": "The cytoplasm and nucleus fluoresce green in acridine orange-stained cells, and the acidic compartments fluoresce red. The intensity of the red fluorescence is proportional to the degree of acidity and the volume of acidic vesicular organelles, including autophagic vacuoles. To quantify the development of acidic vesicular organelles, the cells were stained with acridine orange for 15 minutes and removed from the plate with trypsinization. Cells were then analyzed by flow cytometry. Each sample was evaluated in triplicate."}, "[3]": {"tested_on": "platelets, red and white blood cells", "test": "Compound-induced hematotoxicity and tolerance in mice", "format": "in vivo", "settings": "20 mg/kg intra-venous, three times a week for five weeks", "description": "We have determined the compound-induced potential hematotoxicity of the compound produced according to example 2 or example 7 on platelets, red and white blood cells in comparison of the effect of amonafide on platelets, red and white blood cells. The effect of amonafide was evaluated at 10 mg/kg and 20 mg/kg, by the intra-peritoneal administration to mice. The administration schedule was five times a week for three consecutive weeks. The effect of the compound produced according to example 2 or example 7 was evaluated at 20 mg/kg, by the intra-venous administration to mice. The administration schedule was three times a week (on Mondays, Wednesdays and Fridays) for five consecutive weeks. The animals were sacrificed 3 days after the last injection. There were 10 mice per group. FIG. 1 illustrates results of this assay for compound-induced hematotoxicity on platelets."}, "DU-145 [4]": {"tested_on": "DU-145", "test": "Quantitative videomicroscopy, DU-145", "format": "cell-based, human", "settings": "1 μM", "description": "Use was made of computer-assisted phase-contrast microscopy (quantitative videomicroscopy) in the attempt to elucidate an overall picture of UNBS5162's mechanism of action. […] In addition, 10 μM UNBS5162 caused a marked enlargement in PC-3 cells by the end of the 6-day treatment period compared with the start of the experiment."}}, "note": "Where two headings read alike, the source gives them in different places."}
{"compound": "CN(C)CCN1C(=O)c2cccc3cc(NC(N)=O)cc(c23)C1=O", "note": "[UNBS5162, N-{2-[2-(dimethylamino)ethyl]-1,3-dioxo-2,3-dihydro-1H-benzo[de]isoquinolin-5-yl}urea]", "values": [{"measurement": "Emax at 0.1 µM", "setting": "U-373 MG; 22 hours on the 25% of the most motile cells", "result": -29, "unit": "%"}, {"measurement": "Emax at 0.1 µM", "setting": "U-373 MG; 22 hours on the 50% of the most motile cells", "result": -24, "unit": "%"}, {"measurement": "Emax", "setting": "U-373 MG; 22 hours on the 100% of cells, at the 10^−7 M", "result": -20, "unit": "%"}, {"measurement": "E2F1 expression at protein and mRNA levels", "setting": "E2F1", "result": "dramatic decrease in E2F1 expression"}, {"measurement": "cells undergoing apoptotic processes (Annexin V and propidium iodide positive)", "setting": "DU-145 [1]; 10 μM", "result": "≤ 10", "unit": "%"}, {"measurement": "induction of real (early) apoptosis", "setting": "DU-145 [1]; flow cytometry", "result": "does not induce real (early) apoptosis"}, {"measurement": "late apoptotic and necrotic events", "setting": "DU-145 [1]; flow cytometry", "result": "induces late apoptotic and necrotic events"}, {"measurement": "SA-β-Gal expression", "setting": "PC-3", "result": "Limited SA-β-Gal expression"}, {"measurement": "pro-autophagic effects (acidic vesicular organelles)", "setting": "DU-145 [2]", "result": "had a proautophagic effect"}, {"measurement": "pro-autophagic effects (acidic vesicular organelles)", "setting": "DU-145 [2]; listed as example 2", "result": "pro-autophagic effects"}, {"measurement": "tolerance of chronic administrations", "setting": "[3]", "result": "tolerated 15 chronic administrations"}, {"measurement": "cell dynamics (videomicroscopy)", "setting": "DU-145 [4]", "result": "induced no detectable changes"}]}
